pIC50: −log10 of the molar value.

This assay deals with T1, HIV-integrase (Human immunodeficiency virus type 1 group M subtype B, UniProt P04585).
T1 construct: Recombinant integrase (0.26 ng) was incubated with the beads
Nature of the assay: in-vitro activity against HIV-integrase (HIV Integrase Inhibition, SPA bead assay). The settings on record: Table 1; recombinant integrase, activity class. Type of assay: biochemical. The protocol:
To evaluate in-vitro activity against HIV-integrase, 5 pmole of biotin labeled substrate DNA was bound to 100 μg of Streptavidin coated PVT SPA beads (Amersham Pharmacia Biotech). Recombinant integrase (0.26 ng) was incubated with the beads for 90 min at 37° C. Unbound enzyme was removed by washing the complex followed by addition of inhibitors and […] of P33 labeled target DNA. The reaction was stopped by adding EDTA to a final concentration of 10 mM. Samples were counted in TopCountNXT (Packard) and the CPM was used as a measure of integration. The reaction condition was as described in Engelman, A. and Craigie, R. J. Vitrol. 1996, 69, 5908. The sequences of substrate and target DNA were described in Nucleic Acid Research 1994, 22, 1121.
As a reminder, the pIC50 is the IC50 on a negative log10 scale, so that one unit is a factor of ten. `O=C(NCc1ccc(F)cc1)c1nc2n(c(=O)c1O)CCCC21CCCC1` [Example 1, N-[(4-fluorophenyl)methyl]-7′,8′-dihydro-3′-hydroxy-4′-oxo-spiro[cyclopentane-1,9′(6′H)-[4H]pyrido[1,2-a]pyrimidine]-2′-carboxamide]: the pIC50 was 8.00 to 9.00.

As for `Cc1cc(CNC(=O)c2nc3n(c(=O)c2O)CCCC32CCCC2)ccc1F` [Example 2, N-[(4-fluoro-3-methylphenyl)methyl]-7′,8′-dihydro-3′-hydroxy-4′-oxo-spiro[cyclopentane-1,9′(6′H)-[4H]pyrido[1,2-a]pyrimidine]-2′-carboxamide], the pIC50 was 8.00 to 9.00.

On to `O=C(NCc1ccccc1-n1cncn1)c1nc2n(c(=O)c1O)CCCC21CCCC1` [Example 3, N-[[2-(1H-1,2,4-triazol-1-yl)phenyl]methyl]-7′,8′-dihydro-3′-hydroxy-4′-oxo-spiro[cyclopentane-1,9′(6′H)-[4H]pyrido[1,2-α]pyrimidine]-2′-carboxamide], for which the negative logarithm of the IC50 (pIC50) was 8.00 to 9.00.

On to `O=C(NCc1ccc(F)cc1-n1cncn1)c1nc2n(c(=O)c1O)CCCC21CCCC1` [Example 4, N-[[4-fluoro-2-(1H-1,2,4-triazol-1-yl)phenyl]methyl]-7′,8′-dihydro-3′-hydroxy-4′-oxo-spiro[cyclopentane-1,9′(6′H)-[4H]pyrido[1,2-α]pyrimidine]-2′-carboxamide], for which the negative-log IC50 (pIC50) was 8.00 to 9.00.

As for `O=C(NCc1cc(F)ccc1-n1cncn1)c1nc2n(c(=O)c1O)CCCC21CCCC1` [Example 5, N-[[5-fluoro-2-(1H-1,2,4-triazol-1-yl)phenyl]methyl]-7′,8′-dihydro-3′-hydroxy-4′-oxo-spiro[cyclopentane-1,9′(6′H)-[4H]pyrido[1,2-α]pyrimidine]-2′-carboxamide], the pIC50 was 8.00 to 9.00.

Regarding `O=C(NCc1ccc(F)cc1-n1nccn1)c1nc2n(c(=O)c1O)CCCC21CCCC1` [Example 6, N-[[4-fluoro-2-(2H-1,2,3-triazol-2-yl)phenyl]methyl]-7′,8′-dihydro-3′-hydroxy-4′-oxo-spiro[cyclopentane-1,9′(6′H)-[4H]pyrido[1,2-α]pyrimidine]-2′-carboxamide], the pIC50 was 8.00 to 9.00.

For the molecule `O=C(NCc1ccc(F)cc1-n1ccnc1)c1nc2n(c(=O)c1O)CCCC21CCCC1` [Example 7, N-[[4-fluoro-2-(1H-imidazol-1-yl)phenyl]methyl]-7′,8′-dihydro-3′-hydroxy-4′-oxo-spiro[cyclopentane-1,9′(6′H)-[4H]pyrido[1,2-α]pyrimidine]-2′-carboxamide], the pIC50 is 8.00 to 9.00.

Turning to `O=C(NCc1ccccc1N1CCCCS1(=O)=O)c1nc2n(c(=O)c1O)CCCC21CCCC1` [Example 8, N-[[2-(tetrahydro-1,1-dioxido-2H-1,2-thiazin-2-yl)phenyl]methyl]-7′,8′-dihydro-3′-hydroxy-4′-oxo-spiro[cyclopentane-1,9′(6′H)-[4H]pyrido[1,2-α]pyrimidine]-2′-carboxamide], the pIC50 is 7.00 to 8.00.

For `O=C(NCc1ccc(F)cc1N1CCCCS1(=O)=O)c1nc2n(c(=O)c1O)CCCC21CCCC1` [Example 9, N-[[4-fluoro-2-(tetrahydro-1,1-dioxido-2H-1,2-thiazin-2-yl)phenyl]methyl]-7′,8′-dihydro-3′-hydroxy-4′-oxo-spiro[cyclopentane-1,9′(6′H)-[4H]pyrido[1,2-α]pyrimidine]-2′-carboxamide], the pIC50 was 8.00 to 9.00.

`CN(C)S(=O)(=O)c1cc(F)ccc1CNC(=O)c1nc2n(c(=O)c1O)CCCC21CCCC1` [Example 10, N-[[2-[(dimethylamino)sulfonyl]-4-fluorophenyl]methyl]-7′,8′-dihydro-3′-hydroxy-4′-oxo-spiro[cyclopentane-1,9′(6′H)-[4H]pyrido[1,2-α]pyrimidine]-2′-carboxamide]: the pIC50 was 8.00 to 9.00.

For the molecule `CS(=O)(=O)c1cc(F)ccc1CNC(=O)c1nc2n(c(=O)c1O)CCCC21CCCC1` [Example 11, N-[[4-fluoro-2-(methylsulfonyl)phenyl]methyl]-7′,8′-dihydro-3′-hydroxy-4′-oxo-spiro[cyclopentane-1,9′(6′H)-[4H]pyrido[1,2-α]pyrimidine]-2′-carboxamide], the pIC50 was 8.00 to 9.00.

For the molecule `O=C(NCc1cccc(F)c1-n1cncn1)c1nc2n(c(=O)c1O)CCCC21CCCC1` [Example 12, N-[[3-fluoro-2-(1H-1,2,4-triazol-1-yl)phenyl]methyl]-7′,8′-dihydro-3′-hydroxy-4′-oxo-spiro[cyclopentane-1,9′(6′H)-[4H]pyrido[1,2-α]pyrimidine]-2′-carboxamide], the pIC50 was 8.00 to 9.00.

For `O=C(NCc1ccc(F)cc1)c1nc2n(c(=O)c1O)CCCC21CCOCC1` [Example 13, N-[(4-fluorophenyl)methyl]-2,3,5,6,7′,8′-hexahydro-3′-hydroxy-4′-oxo-spiro[4H-pyran-4,9′(6′H)-[4H]pyrido[1,2-a]pyrimidine]-2′-carboxamide], the pIC50 is 8.00 to 9.00.

Turning to `O=C(NCc1ccccc1)c1nc2n(c(=O)c1O)CCOC21CCCC1` [Example 14, N-(phenylmethyl)-6′,7′-dihydro-3′-hydroxy-4′-oxo-spiro[cyclopentane-1,9′(4′H)-pyrimido[2,1-c][1,4]oxazine]-2′-carboxamide], the pIC50 is 8.00 to 9.00.

Turning to `O=C(NCc1ccc(F)cc1)c1nc2n(c(=O)c1O)CCOC21CCCC1` [Example 15, N-[(4-fluorophenyl)methyl]-6′,7′-dihydro-3′-hydroxy-4′-oxo-spiro[cyclopentane-1,9′(4′H)-pyrimido[2,1-c][1,4]oxazine]-2′-carboxamide], the pIC50 is 8.00 to 9.00.

In the case of `Cc1cc(CNC(=O)c2nc3n(c(=O)c2O)CCOC32CCCC2)ccc1F` [Example 16, N-[(4-fluoro-3-methylphenyl)methyl]-6′,7′-dihydro-3′-hydroxy-4′-oxo-spiro[cyclopentane-1,9′(4′H)-pyrimido[2,1-c][1,4]oxazine]-2′-carboxamide], the pIC50 was 8.00 to 9.00.

For `O=C(NCc1ccc(F)cc1-n1cncn1)c1nc2n(c(=O)c1O)CCOC21CCCC1` [Example 17, N-[[4-fluoro-2-(1 H-1,2,4-triazol-1-yl)phenyl]methyl]-6′,7′-dihydro-3′-hydroxy-4′-oxo-spiro[cyclopentane-1,9′(4′H)-pyrimido[2,1-c][1,4]oxazine]-2′-carboxamide], the negative-log IC50 (pIC50) was 8.00 to 9.00.

For `CSc1cc(F)ccc1CNC(=O)c1nc2n(c(=O)c1O)CCOC21CCCC1` [Example 18, N-[[4-fluoro-2-(methylthio)phenyl]methyl]-6′,7′-dihydro-3′-hydroxy-4′-oxo-spiro[cyclopentane-1,9′(4′H)-pyrimido[2,1-c][1,4]oxazine]-2′-carboxamide], the negative logarithm of the IC50 (pIC50) was 8.00 to 9.00.

`Cc1ccc(CNC(=O)c2nc3n(c(=O)c2O)CCOC32CCCC2)cc1` [Example 19, 6′,7′-dihydro-3′-hydroxy-N-[(4-methylphenyl)methyl]-4′-oxo-spiro[cyclopentane-1,9′(4′H)-pyrimido[2,1-c][1,4]oxazine]-2′-carboxamide]: the pIC50 is 7.00 to 8.00.

As to `O=C(NCc1ccc(Cl)cc1)c1nc2n(c(=O)c1O)CCOC21CCCC1` [Example 20, N-[(4-chlorophenyl)methyl]-6′,7′-dihydro-3′-hydroxy-4′-oxo-spiro[cyclopentane-1,9′(4′H)-pyrimido[2,1-c][1,4]oxazine]-2′-carboxamide], the negative logarithm of the IC50 (pIC50) is 8.00 to 9.00.

As to `O=C(NCc1ccc(Cl)c(Cl)c1)c1nc2n(c(=O)c1O)CCOC21CCCC1` [Example 21, N-[(3,4-dichlorophenyl)methyl]-6′,7′-dihydro-3′-hydroxy-4′-oxo-spiro[cyclopentane-1,9′(4′H)-pyrimido[2,1-c][1,4]oxazine]-2′-carboxamide], the negative logarithm of the IC50 (pIC50) was 8.00 to 9.00.

For the molecule `Cc1ccc(CNC(=O)c2nc3n(c(=O)c2O)CCOC32CCCC2)cc1C` [Example 22, N-[(3,4-dimethylphenyl)methyl]-6′,7′-dihydro-3′-hydroxy-4′-oxo-spiro[cyclopentane-1,9′(4′H)-pyrimido[2,1-c][1,4]oxazine]-2′-carboxamide], the pIC50 is 7.00 to 8.00.

For the molecule `COc1ccc(CNC(=O)c2nc3n(c(=O)c2O)CCOC32CCCC2)cc1` [Example 23, 6′,7′-dihydro-3′-hydroxy-N-[(4-methoxyphenyl)methyl]-4′-oxo-spiro[cyclopentane-1,9′(4′H)-pyrimido[2,1-c][1,4]oxazine]-2′-carboxamide], the pIC50 is 7.00 to 8.00.

With `O=C(NCc1ccccc1F)c1nc2n(c(=O)c1O)CCOC21CCCC1` [Example 24, N-[(2-fluorophenyl)methyl]-6′,7′-dihydro-3′-hydroxy-4′-oxo-spiro[cyclopentane-1,9′(4′H)-pyrimido[2,1-c][1,4]oxazine]-2′-carboxamide], the pIC50 was 7.00 to 8.00.

With `COc1ccc(CNC(=O)c2nc3n(c(=O)c2O)CCOC32CCCC2)c(OC)c1` [Example 25, N-[(2,4-dimethoxyphenyl)methyl]-6′,7′-dihydro-3′-hydroxy-4′-oxo-spiro[cyclopentane-1,9′(4′H)-pyrimido[2,1-c][1,4]oxazine]-2′-carboxamide], the pIC50 was 7.00 to 8.00.

Turning to `O=C(NCc1cccc(F)c1)c1nc2n(c(=O)c1O)CCOC21CCCC1` [Example 26, N-[(3-fluorophenyl)methyl]-6′,7′-dihydro-3 ′-hydroxy-4′-oxo-spiro[cyclopentane-1,9′(4′H)-pyrimido[2,1-c][1,4]oxazine]-2′-carboxamide], the pIC50 was 7.00 to 8.00.

Turning to `Cc1ccc(CNC(=O)c2nc3n(c(=O)c2O)CCOC32CCCC2)cc1F` [Example 27, N-[(3-fluoro-4-methylphenyl)methyl]-6′,7′-dihydro-3′-hydroxy-4′-oxo-spiro[cyclopentane-1,9′(4′H)-pyrimido[2,1-c][1,4]oxazine]-2′-carboxamide], the pIC50 is 8.00 to 9.00.
